Measurements from US8173689B2 (Novartis AG, priority 2006, dated 2012).
Where two headings read alike, the source gives them in different places.

Key:
[1] = test system: MNFS60 (murine AML cells); test: Cell viability assay in MCSF dependent MNFS60 cells (Cell Titer Glo); format: cell-based; settings: Mus musculus, read-out: M-NFS-60 CP percent inhibition
How it was run: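 Three-fold serial compound dilutions, prepared in DMSO at 500× the final level, were applied alongside MCSF (final 10 ng/ml). Incubation lasted 72 hrs (37° C., 5% CO2) before CellTiter-Glo addition. Triplicate points were curve-fitted for EC50.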

kinase domain of cKIT = target: T1, kinase domain of cKIT (Homo sapiens, UniProt P10721); test: Inhibition of cKIT kinase signaling in an in vitro biochemical assay (alphascreen); settings: tested at about 1 μM, read-out: cKit percent inhibition
T1 construct: The kinase domain of cKIT was assayed in 50 mM Hepes; purchased Upstate 14-559
T1 sequence (P10721 589-937 limits assumed): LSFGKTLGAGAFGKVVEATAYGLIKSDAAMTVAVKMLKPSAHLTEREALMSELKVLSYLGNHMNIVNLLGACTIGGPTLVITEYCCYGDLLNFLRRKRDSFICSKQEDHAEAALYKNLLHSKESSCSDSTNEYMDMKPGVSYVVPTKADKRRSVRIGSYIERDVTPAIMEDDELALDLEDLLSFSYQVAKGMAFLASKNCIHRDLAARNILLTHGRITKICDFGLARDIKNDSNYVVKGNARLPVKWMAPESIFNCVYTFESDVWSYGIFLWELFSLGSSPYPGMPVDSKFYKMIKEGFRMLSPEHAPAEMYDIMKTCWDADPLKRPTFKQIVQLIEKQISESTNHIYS

kinase domain of PDGFRβ = target: T2, kinase domain of PDGFRβ (Homo sapiens, UniProt P09619); test: Inhibition of PDGFRb kinase signaling in an in vitro biochemical assay (alphascreen); settings: tested at about 1 μM, read-out: PDGFRβ percent inhibition
T2 construct: The kinase domain of PDGFRβ was assayed in 50 mM Hepes; purchased Invitrogen P3082
T2 sequence (P09619 600-962 limits assumed): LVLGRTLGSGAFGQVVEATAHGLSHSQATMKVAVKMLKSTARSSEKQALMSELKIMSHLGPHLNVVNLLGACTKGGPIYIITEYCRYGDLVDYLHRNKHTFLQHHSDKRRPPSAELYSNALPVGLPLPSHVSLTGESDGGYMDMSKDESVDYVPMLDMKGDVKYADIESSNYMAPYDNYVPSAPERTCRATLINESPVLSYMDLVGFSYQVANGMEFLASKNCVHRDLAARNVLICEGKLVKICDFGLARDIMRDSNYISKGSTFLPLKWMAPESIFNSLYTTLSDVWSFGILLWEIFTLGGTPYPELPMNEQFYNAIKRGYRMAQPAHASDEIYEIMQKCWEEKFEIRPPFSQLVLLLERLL

[2] = target: T3, cytoplasmic domain of the human CSF-1R (Homo sapiens, UniProt P07333); test: In vitro kinase assay for colony stimulating factor-1 receptor (AlphaScreen); format: biochemical; settings: read-out: CSF-1R percent inhibition
T3 construct: Recombinant protein corresponding to the cytoplasmic domain of the human CSF-1R; purchased Invitrogen Corporation, Carlsbad, Calif; PV3249
T3 sequence (P07333 539-972 limits assumed): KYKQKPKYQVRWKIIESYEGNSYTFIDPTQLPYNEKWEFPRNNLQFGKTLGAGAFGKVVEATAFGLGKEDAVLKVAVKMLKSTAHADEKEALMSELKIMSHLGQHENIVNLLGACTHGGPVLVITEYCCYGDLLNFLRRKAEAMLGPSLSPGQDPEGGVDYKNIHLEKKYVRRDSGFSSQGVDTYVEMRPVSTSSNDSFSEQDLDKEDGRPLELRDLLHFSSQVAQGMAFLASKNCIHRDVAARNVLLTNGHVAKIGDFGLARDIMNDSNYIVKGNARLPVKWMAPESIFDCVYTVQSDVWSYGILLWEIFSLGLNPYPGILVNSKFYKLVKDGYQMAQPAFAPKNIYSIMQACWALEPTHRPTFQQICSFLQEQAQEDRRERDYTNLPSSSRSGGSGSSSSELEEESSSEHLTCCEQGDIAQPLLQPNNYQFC
How it was run: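 Kinase reaction used 4 nM recombinant cytoplasmic domain at 1 μM ATP in 50 mM Hepes pH 7.5 with 5 mM MgCl2, 10 mM MnCl2, 0.1% BSA, 1.0 mM DTT and 0.01% Tween 80. Compounds were serially diluted 3-fold from 25 μM. Phosphopeptide was detected by AlphaScreen, PT66 anti-phosphotyrosine acceptor plus streptavidin donor beads, read after overnight incubation.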

[3] = target: T4, full-length human CSF-1R receptor (Homo sapiens, UniProt P07333); test: In vitro inhibition of CSF-1R receptor tyrosine phosphorylation in transfected HEK293H cells stimulated with MCSF; format: cell-based; settings: HEK293-H, read-out: pCSF1R percent inhibition
T4 construct: transfected with the full-length human CSF-1R receptor cloned in house; expressed in transfected cells; host or cells: HEK293H (Invitrogen Cat. #11631017)
T4 sequence (P07333 20-972): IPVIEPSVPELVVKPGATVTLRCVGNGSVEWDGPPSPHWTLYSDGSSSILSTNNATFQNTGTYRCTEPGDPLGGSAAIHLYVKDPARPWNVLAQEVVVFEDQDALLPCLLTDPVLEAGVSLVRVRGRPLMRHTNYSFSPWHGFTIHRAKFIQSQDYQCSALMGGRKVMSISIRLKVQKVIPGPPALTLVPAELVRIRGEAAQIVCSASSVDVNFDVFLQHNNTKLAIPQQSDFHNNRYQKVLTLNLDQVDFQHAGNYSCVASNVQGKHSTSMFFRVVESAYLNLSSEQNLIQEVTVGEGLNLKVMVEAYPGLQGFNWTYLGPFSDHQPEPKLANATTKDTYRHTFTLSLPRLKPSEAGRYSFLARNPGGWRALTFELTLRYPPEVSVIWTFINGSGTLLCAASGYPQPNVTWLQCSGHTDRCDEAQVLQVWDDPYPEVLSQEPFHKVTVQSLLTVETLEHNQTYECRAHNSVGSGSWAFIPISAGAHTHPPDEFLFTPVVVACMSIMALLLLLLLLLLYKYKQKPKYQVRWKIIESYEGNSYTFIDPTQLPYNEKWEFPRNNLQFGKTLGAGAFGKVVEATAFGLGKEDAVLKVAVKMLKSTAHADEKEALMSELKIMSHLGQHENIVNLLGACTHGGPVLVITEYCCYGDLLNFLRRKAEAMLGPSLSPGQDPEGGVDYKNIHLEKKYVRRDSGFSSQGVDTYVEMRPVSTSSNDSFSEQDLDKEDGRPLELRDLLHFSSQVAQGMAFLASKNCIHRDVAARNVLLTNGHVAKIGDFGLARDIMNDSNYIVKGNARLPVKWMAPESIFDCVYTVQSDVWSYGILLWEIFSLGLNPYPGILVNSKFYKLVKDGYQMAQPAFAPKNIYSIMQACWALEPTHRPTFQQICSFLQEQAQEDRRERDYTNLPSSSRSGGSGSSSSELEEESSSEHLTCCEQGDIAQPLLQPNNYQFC
Experimental: The lysate was then transferred to total CSF-1R antibody coated 96-well plates that had already been blocked with 3% Blocker A from Mesoscale discovery (MSD) for 2 hours and washed afterwards. Lysates were incubated overnight at 4° C. and the plates were then washed 4× with MSD Tris Wash Buffer. […] The plates were read on the Sector 6000 instrument (MSD). Raw data was imported in Abase and EC50s calculated with XL-fit data analysis software.

[4] = tested at about 1 μM, compounds of Table 3
[5] = tested at about 1 μM, MCSF dependent MNFS60 cells
[6] = tested at about 1 μM, HEK293H cells

Row | Compound | inhibition at 1 µM [1] | inhibition at 1 µM (kinase domain of cKIT) | inhibition at 1 µM (kinase domain of PDGFRβ) | inhibition at 1 µM [2] | inhibition at 1 µM [3] | inhibition at 1 µM [1, 4] | inhibition at 1 µM (kinase domain of cKIT; compounds of Table 3) | inhibition at 1 µM (kinase domain of PDGFRβ; compounds of Table 3) | inhibition at 1 µM [2, 4] | inhibition at 1 µM [3, 4] | inhibition at 1 µM [1, 5] | inhibition at 1 µM ([2]; tested at about 1 μM) | inhibition at 1 µM [3, 6]
1 | Cn1cc(-c2cc(Oc3ccc4nc(N[C@@H]5CCCC[C@H]5O)sc4c3)ccn2)cn1 [Example 344, (1R,2R)-2-(6-(2-(1-methyl-1H-pyrazol-4-yl)pyridin-4-yloxy)benzo[d]thiazol-2-ylamino)cyclohexanol] | 100% | 45% | 65% | 100% | 95% |  |  |  |  |  |  |  | 
2 | Cc1nc(-c2cc(Oc3ccc4nc(N[C@@H](C)C5CCCCC5)sc4c3)ccn2)[nH]c1C [Example 269, (S)-N-(1-cyclohexylethyl)-6-(2-(4,5-dimethyl-1H-imidazol-2-yl)pyridin-4-yloxy)benzo[d]thiazol-2-amine] |  |  |  |  |  | 75% | 18% | 13% | 100% | 85% |  |  | 
3 | O[C@@H]1CCCC[C@H]1Nc1nc2ccc(Oc3ccnc(-c4ccco4)c3)cc2s1 [Example 371, (1R,2R)-2-(6-(2-(furan-2-yl)pyridin-4-yloxy)benzo[d]thiazol-2-ylamino)cyclohexanol] |  | 29% | 9% |  |  |  |  |  |  |  | 69% | 100% | 79%
4 | O[C@@H]1CCCC[C@H]1Nc1nc2ccc(Oc3ccnc(-c4cccc(CN5CCOCC5)c4)c3)cc2s1 [Cmpd 166, (1R,2R)-2-(6-(2-(3-(morpholinomethyl)phenyl)pyridin-4-yloxy)benzo[d]thiazol-2-ylamino)cyclohexanol] |  |  |  |  |  | 49% | 13% | 0% | 100% | 78% |  |  | 
5 | CCCn1cc(-c2cc(Oc3ccc4nc(N[C@@H](C)C5CCCCC5)sc4c3)ccn2)cn1 [Example 273, (S)-N-(1-cyclohexylethyl)-6-(2-(1-propyl-1H-pyrazol-4-yl)pyridin-4-yloxy)benzo[d]thiazol-2-amine] |  |  |  |  |  | 95% | 41% | 14% | 100% | 88% |  |  | 
6 | Cn1cc(-c2cc(Oc3ccc4nc(N[C@H]5CCCc6ccccc65)sc4c3)ccn2)cn1 [Example 362, (S)-6-(2-(1-methyl-1H-pyrazol-4-yl)pyridin-4-yloxy)-N-(1,2,3,4-tetrahydronaphthalen-1-yl)benzo[d]thiazol-2-amine] |  | 99% | 92% |  |  |  |  |  |  |  | 100% | 100% | 100%
7 | CC(C)C[C@H](CO)Nc1nc2ccc(Oc3ccnc4ccccc34)cc2s1 [Example 245, (R)-4-methyl-2-(6-(quinolin-4-yloxy)benzo[d]thiazol-2-ylamino)pentan-1-ol] |  |  |  |  |  | 53% | 16% | 21% | 100% | 81% |  |  | 
8 | O[C@@H]1CCCC[C@H]1Nc1nc2ccc(Oc3ccnc(-c4ccnc(N5CCOCC5)c4F)c3)cc2s1 [Cmpd 172, (1R,2R)-2-(6-(3'-fluoro-2'-morpholino-2,4'-bipyridin-4-yloxy)benzo[d]thiazol-2-ylamino)cyclohexanol] |  |  |  |  |  | 100% | 22% | 18% | 100% | 97% |  |  | 
9 | CNC(=O)c1cc(Oc2ccc3nc(NCC4CCCN(S(C)(=O)=O)C4)sc3c2)ccn1 (centres unmarked) [Example 308, N-methyl-4-(2-((1-(methylsulfonyl)piperidin-3-yl)methylamino)benzo[d]thiazol-6-yloxy)picolinamide] |  | 51% | 27% |  |  |  |  |  |  |  | 54% | 100% | 81%
10 | C[C@H](Nc1nc2ccc(Oc3ccnc(-c4cccnc4)c3)cc2s1)C1CCCCC1 [Example 274, (S)-6-(2,3'-bipyridin-4-yloxy)-N-(1-cyclohexylethyl)benzo[d] thiazol-2-amine] |  |  |  |  |  | 76% | 28% | 12% | 100% | 82% |  |  | 
11 | c1ccc2c(Oc3ccc4nc(NC5CCCCC5)sc4c3)ccnc2c1 [Example 256, N-cyclohexyl-6-(quinolin-4-yloxy)benzo[d]thiazol-2-amine] |  |  |  |  |  | 87% | 71% | 3% | 100% | 87% |  |  | 
12 | Cc1c[nH]c(-c2cc(Oc3ccc4nc(N[C@@H]5CCCC[C@H]5O)sc4c3)ccn2)n1 [Example 231, (1R,2R)-2-(6-(2-(4-methyl-1H-imidazol-2-yl)pyridin-4-yloxy)benzo[d]thiazol-2-ylamino)cyclohexanol] |  |  |  |  |  | 100% | 9% | 49% | 100% | 99% |  |  | 
13 | Cn1cc(-c2cc(Oc3ccc4nc(N[C@H]5CCCN(S(=O)(=O)C6CC6)C5)sc4c3)ccn2)cn1 [Example 373, (S)-N-(1-(cyclopropylsulfonyl)piperidin-3-yl)-6-(2-(1-methyl-1H-pyrazol-4-yl)pyridin-4-yloxy)benzo[d]thiazol-2-amine] |  | 51% | 0% |  |  |  |  |  |  |  | 100% | 101% | 91%
